Experimental data published in PubChem BioAssay AID1919014 (Molecular Pharmacology Branch, DTP, NCI, 2023).

Tested on: NCI-H1341 complex spheroids, percent test/control
Test: Anticancer human tumor NCI-H1341 cell line growth inhibition [AhR];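 further: spheroids exposed to agents for seven days before readout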
Conditions: for IC50: curve of first compound; for viability, T/C: stronger effect = lower value
Outline: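 Spheroids combined tumor cells with HUVEC endothelial cells and human MSCs as stroma. AhR antagonists were paired with standard or investigational drugs, each dosed in half-log steps down from near clinical Cmax, or from 10 microM where Cmax was unknown.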

[1] = second compound 0.1 µM, first compound 0.0316 µM
[2] = second compound 0.1 µM, first compound 0.1 µM
[3] = second compound 0.1 µM, first compound 0.316 µM
[4] = second compound 0.1 µM, first compound 1 µM
[5] = second compound 0.1 µM, first compound 3.16 µM
[6] = second compound 0.1 µM, first compound 10 µM
[7] = second compound 0.316 µM, first compound 0.0316 µM
[8] = second compound 0.316 µM, first compound 0.1 µM
[9] = second compound 0.316 µM, first compound 0.316 µM
[10] = second compound 0.316 µM, first compound 1 µM
[11] = second compound 0.316 µM, first compound 3.16 µM
[12] = second compound 0.316 µM, first compound 10 µM
[13] = second compound 1 µM, first compound 0.0316 µM
[14] = second compound 1 µM, first compound 0.1 µM
[15] = second compound 1 µM, first compound 0.316 µM
[16] = second compound 1 µM, first compound 1 µM
[17] = second compound 1 µM, first compound 3.16 µM
[18] = second compound 1 µM, first compound 10 µM
[19] = second compound 3.16 µM, first compound 0.0316 µM
[20] = second compound 3.16 µM, first compound 0.1 µM
[21] = second compound 3.16 µM, first compound 0.316 µM
[22] = second compound 3.16 µM, first compound 1 µM
[23] = second compound 3.16 µM, first compound 3.16 µM
[24] = second compound 3.16 µM, first compound 10 µM
[25] = second compound 10 µM, first compound 0.0316 µM
[26] = second compound 10 µM, first compound 0.1 µM
[27] = second compound 10 µM, first compound 0.316 µM
[28] = second compound 10 µM, first compound 1 µM
[29] = second compound 10 µM, first compound 3.16 µM
[30] = second compound 10 µM, first compound 10 µM

## COc1cc(C2c3cc4c(cc3C(OC3OC5COC(C)OC5C(O)C3O)C3COC(=O)C23)OCO4)cc(OC)c1O (stereo not given) + CC(CO)NC(=O)c1cc(-c2ccc(Cl)cc2)nn(-c2cnn(C)c2)c1=O
Second compound 0.1 µM
  IC50: 1190 nM
Second compound 0.316 µM
  IC50: 673 nM
Second compound 1 µM
  IC50: 471 nM
Second compound 3.16 µM
  IC50: 294 nM
Second compound 10 µM
  IC50: 135 nM
[1]
  viability, T/C: 85.9%
[2]
  viability, T/C: 84.6%
[3]
  viability, T/C: 65.2%
[4]
  viability, T/C: 50.4%
[5]
  viability, T/C: 44.8%
[6]
  viability, T/C: 33.3%
[7]
  viability, T/C: 72.4%
[8]
  viability, T/C: 69.1%
[9]
  viability, T/C: 55.5%
[10]
  viability, T/C: 44.8%
[11]
  viability, T/C: 39.4%
[12]
  viability, T/C: 28.7%
[13]
  viability, T/C: 74.2%
[14]
  viability, T/C: 76.5%
[15]
  viability, T/C: 54.4%
[16]
  viability, T/C: 44.3%
[17]
  viability, T/C: 41.3%
[18]
  viability, T/C: 36.1%
[19]
  viability, T/C: 74.6%
[20]
  viability, T/C: 75.6%
[21]
  viability, T/C: 48.2%
[22]
  viability, T/C: 40.2%
[23]
  viability, T/C: 41.1%
[24]
  viability, T/C: 28.6%
[25]
  viability, T/C: 63.5%
[26]
  viability, T/C: 56.8%
[27]
  viability, T/C: 40.6%
[28]
  viability, T/C: 33.4%
[29]
  viability, T/C: 33.2%
[30]
  viability, T/C: 27.3%

## Nc1ncn(C2CC(O)C(CO)S2)c(=O)n1 (stereo not given) + CC(CO)NC(=O)c1cc(-c2ccc(Cl)cc2)nn(-c2cnn(C)c2)c1=O
Second compound 0.1 µM
  IC50: 271 nM
Second compound 0.316 µM
  IC50: 220 nM
Second compound 1 µM
  IC50: 223 nM
Second compound 3.16 µM
  IC50: 214 nM
Second compound 10 µM
  IC50: 234 nM
Second compound 0.1 µM, first compound 0.000949 µM
  viability, T/C: 89.1%
Second compound 0.1 µM, first compound 0.003 µM
  viability, T/C: 94.3%
Second compound 0.1 µM, first compound 0.00949 µM
  viability, T/C: 91.2%
Second compound 0.1 µM, first compound 0.03 µM
  viability, T/C: 89.3%
Second compound 0.1 µM, first compound 0.0949 µM
  viability, T/C: 63.6%
Second compound 0.1 µM, first compound 0.3 µM
  viability, T/C: 48.7%
Second compound 0.316 µM, first compound 0.000949 µM
  viability, T/C: 94.6%
Second compound 0.316 µM, first compound 0.003 µM
  viability, T/C: 91.5%
Second compound 0.316 µM, first compound 0.00949 µM
  viability, T/C: 84.5%
Second compound 0.316 µM, first compound 0.03 µM
  viability, T/C: 89.8%
Second compound 0.316 µM, first compound 0.0949 µM
  viability, T/C: 78.3%
Second compound 0.316 µM, first compound 0.3 µM
  viability, T/C: 39.2%
Second compound 1 µM, first compound 0.000949 µM
  viability, T/C: 75.3%
Second compound 1 µM, first compound 0.003 µM
  viability, T/C: 105%
Second compound 1 µM, first compound 0.00949 µM
  viability, T/C: 91.8%
Second compound 1 µM, first compound 0.03 µM
  viability, T/C: 79.6%
Second compound 1 µM, first compound 0.0949 µM
  viability, T/C: 76.2%
Second compound 1 µM, first compound 0.3 µM
  viability, T/C: 41.3%
Second compound 3.16 µM, first compound 0.000949 µM
  viability, T/C: 86%
Second compound 3.16 µM, first compound 0.003 µM
  viability, T/C: 96.1%
Second compound 3.16 µM, first compound 0.00949 µM
  viability, T/C: 85.6%
Second compound 3.16 µM, first compound 0.03 µM
  viability, T/C: 82.7%
Second compound 3.16 µM, first compound 0.0949 µM
  viability, T/C: 69.2%
Second compound 3.16 µM, first compound 0.3 µM
  viability, T/C: 42%
Second compound 10 µM, first compound 0.000949 µM
  viability, T/C: 73.3%
Second compound 10 µM, first compound 0.003 µM
  viability, T/C: 73.1%
Second compound 10 µM, first compound 0.00949 µM
  viability, T/C: 79.1%
Second compound 10 µM, first compound 0.03 µM
  viability, T/C: 69.2%
Second compound 10 µM, first compound 0.0949 µM
  viability, T/C: 63.6%
Second compound 10 µM, first compound 0.3 µM
  viability, T/C: 46%

## COc1cc(Nc2ncc3c(n2)-c2ccc(Cl)cc2C(c2c(F)cccc2OC)=NC3)ccc1C(=O)O + Cc1cncc(-c2nc(NCCc3c[nH]c4ccccc34)c3ncn(C(C)C)c3n2)c1
Second compound 0.1 µM
  IC50: < 31.6 nM
Second compound 0.316 µM
  IC50: < 31.6 nM
Second compound 1 µM
  IC50: < 31.6 nM
Second compound 3.16 µM
  IC50: < 31.6 nM
Second compound 10 µM
  IC50: < 31.6 nM
[1]
  viability, T/C: 38.2%
[2]
  viability, T/C: 42.3%
[3]
  viability, T/C: 38.9%
[4]
  viability, T/C: 31.2%
[5]
  viability, T/C: 24.2%
[6]
  viability, T/C: 21%
[7]
  viability, T/C: 37.1%
[8]
  viability, T/C: 37.1%
[9]
  viability, T/C: 34.9%
[10]
  viability, T/C: 23.9%
[11]
  viability, T/C: 26.9%
[12]
  viability, T/C: 22.3%
[13]
  viability, T/C: 36.1%
[14]
  viability, T/C: 39.9%
[15]
  viability, T/C: 34.3%
[16]
  viability, T/C: 30.1%
[17]
  viability, T/C: 25.8%
[18]
  viability, T/C: 20.5%
[19]
  viability, T/C: 42.2%
[20]
  viability, T/C: 37.7%
[21]
  viability, T/C: 40.2%
[22]
  viability, T/C: 37.5%
[23]
  viability, T/C: 27.5%
[24]
  viability, T/C: 24%
[25]
  viability, T/C: 25.4%
[26]
  viability, T/C: 30.3%
[27]
  viability, T/C: 29.8%
[28]
  viability, T/C: 24.2%
[29]
  viability, T/C: 21.2%
[30]
  viability, T/C: 19.4%

## CC[C@@]1(O)C(=O)OCc2c1cc1n(c2=O)Cc2cc3c(CN(C)C)c(O)ccc3nc2-1 + CC(CO)NC(=O)c1cc(-c2ccc(Cl)cc2)nn(-c2cnn(C)c2)c1=O
Second compound 0.1 µM
  IC50: 31.3 nM
Second compound 0.316 µM
  IC50: 60.3 nM
Second compound 1 µM
  IC50: 48.9 nM
Second compound 3.16 µM
  IC50: 31.4 nM
Second compound 10 µM
  IC50: 32.4 nM
Second compound 0.1 µM, first compound 0.000316 µM
  viability, T/C: 81.7%
Second compound 0.1 µM, first compound 0.001 µM
  viability, T/C: 85.1%
Second compound 0.1 µM, first compound 0.00316 µM
  viability, T/C: 103%
Second compound 0.1 µM, first compound 0.01 µM
  viability, T/C: 81.5%
[1]
  viability, T/C: 50.3%
[2]
  viability, T/C: 40.2%
Second compound 0.316 µM, first compound 0.000316 µM
  viability, T/C: 84.4%
Second compound 0.316 µM, first compound 0.001 µM
  viability, T/C: 66.2%
Second compound 0.316 µM, first compound 0.00316 µM
  viability, T/C: 84.6%
Second compound 0.316 µM, first compound 0.01 µM
  viability, T/C: 75.8%
[7]
  viability, T/C: 58.3%
[8]
  viability, T/C: 43.5%
Second compound 1 µM, first compound 0.000316 µM
  viability, T/C: 90.7%
Second compound 1 µM, first compound 0.001 µM
  viability, T/C: 84%
Second compound 1 µM, first compound 0.00316 µM
  viability, T/C: 65%
Second compound 1 µM, first compound 0.01 µM
  viability, T/C: 76.8%
[13]
  viability, T/C: 58.8%
[14]
  viability, T/C: 37.2%
Second compound 3.16 µM, first compound 0.000316 µM
  viability, T/C: 87.3%
Second compound 3.16 µM, first compound 0.001 µM
  viability, T/C: 74.8%
Second compound 3.16 µM, first compound 0.00316 µM
  viability, T/C: 79.2%
Second compound 3.16 µM, first compound 0.01 µM
  viability, T/C: 71.4%
[19]
  viability, T/C: 49.5%
[20]
  viability, T/C: 39.1%
Second compound 10 µM, first compound 0.000316 µM
  viability, T/C: 80.8%
Second compound 10 µM, first compound 0.001 µM
  viability, T/C: 77.8%
Second compound 10 µM, first compound 0.00316 µM
  viability, T/C: 69.2%
Second compound 10 µM, first compound 0.01 µM
  viability, T/C: 70.1%
[25]
  viability, T/C: 48%
[26]
  viability, T/C: 36.6%

## Nc1ccccc1NC(=O)c1ccc(CNC(=O)OCc2cccnc2)cc1 + Cc1cncc(-c2nc(NCCc3c[nH]c4ccccc34)c3ncn(C(C)C)c3n2)c1
Second compound 0.1 µM
  IC50: 403 nM
Second compound 0.316 µM
  IC50: 382 nM
Second compound 1 µM
  IC50: 369 nM
Second compound 3.16 µM
  IC50: 127 nM
Second compound 10 µM
  IC50: < 31.6 nM
[1]
  viability, T/C: 66.1%
[2]
  viability, T/C: 76.2%
[3]
  viability, T/C: 52.2%
[4]
  viability, T/C: 29.1%
[5]
  viability, T/C: 5.05%
[6]
  viability, T/C: 0.51%
[7]
  viability, T/C: 73.4%
[8]
  viability, T/C: 65.8%
[9]
  viability, T/C: 55.7%
[10]
  viability, T/C: 26.1%
[11]
  viability, T/C: 5.82%
[12]
  viability, T/C: 0.6%
[13]
  viability, T/C: 68.6%
[14]
  viability, T/C: 84.9%
[15]
  viability, T/C: 51.3%
[16]
  viability, T/C: 19.8%
[17]
  viability, T/C: 5.68%
[18]
  viability, T/C: 0.56%
[19]
  viability, T/C: 55.3%
[20]
  viability, T/C: 52.2%
[21]
  viability, T/C: 42.3%
[22]
  viability, T/C: 21.7%
[23]
  viability, T/C: 8.4%
[24]
  viability, T/C: 0.87%
[25]
  viability, T/C: 21.9%
[26]
  viability, T/C: 22.6%
[27]
  viability, T/C: 15.2%
[28]
  viability, T/C: 9.63%
[29]
  viability, T/C: 1.83%
[30]
  viability, T/C: 0.47%
